This is an account of results in ChEMBL document CHEMBL1687905, “Blockade of IL-6 secretion pathway by the sesquiterpenoid atractylenolide III” (J Nat Prod, 2011).

Series [1] deals with HMC1. Put plainly: Suppression of NF-kappaB activation in human HMC1 cells assessed as inhibition of phorbol 12-myristate 13-acetate/A23187-stimulated nuclear Rel A/p65 level at 1 to 100 uM treated 1 hr prior to 2 hrs phorbol 12-myristate 13-acetate/A23187 challenge by Western blotting analysis. In kind it is cell-based.
Series [2] relates to HMC1. Nature of the series: Immunomodulatory activity in human HMC1 cells assessed as inhibition of phorbol 12-myristate 13-acetate/A23187-stimulated histamine secretion at 100 uM treated 1 hr prior to 6 hrs phorbol 12-myristate 13-acetate/A23187 challenge by histamine assay kit. In kind it is functional, cell-based.
The subject of series [3] is HMC1. Nature of the series: Immunomodulatory activity in human HMC1 cells assessed as inhibition of phorbol 12-myristate 13-acetate/A23187-stimulated caspase 1 activation at 1 to 100 uM treated 1 hr prior to 30 mins phorbol 12-myristate 13-acetate/A23187 challenge by caspase colorimetric assay. In kind it is functional, cell-based.
Series [4] has as its system HMC1. Nature of the series: Immunomodulatory activity in human HMC1 cells assessed as inhibition of phorbol 12-myristate 13-acetate/A23187-stimulated caspase 1 activation at 1 to 100 uM treated 1 hr prior to 30 mins phorbol 12-myristate 13-acetate/A23187 challenge by Western blotting analysis. Format: functional, cell-based.
Series [5] concerns HMC1. Put plainly: Immunomodulatory activity in human HMC1 cells assessed as inhibition of phorbol 12-myristate 13-acetate/A23187-stimulated IL-6 secretion by ELISA method. Format: functional, cell-based. In general terms: ELISA stands for enzyme-linked immunosorbent assay.
Series [6] relates to HMC1. Nature of the series: Immunomodulatory activity in human HMC1 cells assessed as inhibition of phorbol 12-myristate 13-acetate/A23187-stimulated p38 phosphorylation at 1 to 100 uM treated 1 hr prior to 30 mic phorbol 12-myristate 13-acetate/A23187 challenge. In kind it is functional, cell-based.
Series [7] concerns HMC1. Put plainly: Immunomodulatory activity in human HMC1 cells assessed as inhibition of phorbol 12-myristate 13-acetate/A23187-stimulated RIP-2 activation at 1 to 100 uM treated 1 hr prior to 30 mins phorbol 12-myristate 13-acetate/A23187 challenge by Western blotting analysis. Format: functional, cell-based.
The test system of series [8] is HMC1. Nature of the series: Suppression of NF-kappaB activation in human HMC1 cells assessed as inhibition of phorbol 12-myristate 13-acetate/A23187-stimulated luciferase activity at 1 to 100 uM treated 1 hr prior to 24 hrs phorbol 12-myristate 13-acetate/A23187 challenge by luciferase reporter gene assay. In kind it is cell-based. In general terms: Reporter assays use an easily measured gene product as a stand-in for the process of interest.

For series [9], the system named is HMC1. Nature of the series: Immunomodulatory activity in human HMC1 cells assessed as inhibition of phorbol 12-myristate 13-acetate/A23187-stimulated ERK phosphorylation at 1 to 100 uM treated 1 hr prior to 30 mins phorbol 12-myristate 13-acetate/A23187 challenge. Format: functional, cell-based.
Series [10] concerns HMC1. Put plainly: Immunomodulatory activity in human HMC1 cells assessed as inhibition of phorbol 12-myristate 13-acetate/A23187-stimulated IL1-beta secretion at 1 to 100 uM treated 1 hr prior to 30 mins phorbol 12-myristate 13-acetate/A23187 challenge by Western blotting analysis. Format: functional, cell-based. On the technique in general: In western blotting, separated proteins are transferred to a membrane and probed.

Series [11] concerns HMC1. Put plainly: Immunomodulatory activity in human HMC1 cells assessed as inhibition of phorbol 12-myristate 13-acetate/A23187-stimulated IL-6 mRNA expression at 1 to 100 uM treated 1 hr prior to 5 hrs phorbol 12-myristate 13-acetate/A23187 challenge by RT-PCR analysis. Format: functional, cell-based.
Series [12] has as its system HMC1. Nature of the series: Immunomodulatory activity in human HMC1 cells assessed as inhibition of phorbol 12-myristate 13-acetate/A23187-stimulated JNK phosphorylation at 1 to 100 uM treated 1 hr prior to 30 mic phorbol 12-myristate 13-acetate/A23187 challenge. Format: functional, cell-based.
The nature of series [13]: Cytotoxicity against human HMC1 cells assessed as cell viability at 1 to 100 uM after 8 hrs by MTT colorimetric assay. Format: cell-based. To be noted: hmc1, 8 h.
Series [14] has as its system HMC1. Put plainly: Suppression of NF-kappaB activation in human HMC1 cells assessed as inhibition of phorbol 12-myristate 13-acetate/A23187-stimulated IkappaB-alpha degradation at 1 to 100 uM treated 1 hr prior to 2 hrs phorbol 12-myristate 13-acetate/A23187 challenge by Western blotting analysis. Format: cell-based.
The subject of series [15] is HMC1. Nature of the series: Immunomodulatory activity in human HMC1 cells assessed as inhibition of phorbol 12-myristate 13-acetate/A23187-stimulated IL1-beta secretion treated 1 hr prior to 30 mins phorbol 12-myristate 13-acetate/A23187 challenge by Western blotting analysis. In kind it is functional, cell-based.

The source made the active and inactive calls. The rule behind the calls is not given here.

With `C=C1CCC[C@]2(C)C[C@]3(O)OC(=O)C(C)=C3C[C@@H]12` [ATRACTYLENOLIDE III], the inhibition entry in the series on HMC1 [1], with HMC1 [2], in the series on HMC1 [3], in the series on HMC1 [6], in the series on HMC1 [8] and in the series with HMC1 [10] was “Active” throughout. For the same molecule, the inhibition result with HMC1 [11], with HMC1 [12] and in the series with HMC1 [14] was “Active” each time. Besides, the inhibition entry in the series on HMC1 [4], with HMC1 [5] and in the series with HMC1 [7] was “Dose-dependent effect” each time. Also, the inhibition entry in the series with HMC1 [9] was “inactive”. For the same molecule, in series [13], the Activity result is “Non-toxic”.
For `C[C@@H]1C[C@H]2[C@@H]3CCC4=CC(=O)C=C[C@]4(C)[C@@]3(F)[C@@H](O)C[C@]2(C)[C@@]1(O)C(=O)CO`, in the series with HMC1 [15], the inhibition result was “Active”.
